Measured values reported in US6537553B1, “Leukosialin: Ig fusion proteins” (La Jolla Cancer Research Foundation, priority 1993, dated 2003).

Legend:
[1] = tested on: activated mouse tEnd.1 cells (E-selectin mediated adhesion); assay: Inhibition of adhesion of SM colonic carcinoma cells to IL-1β-activated mouse tEnd.1 endothelial cell monolayers; format: cell-based; settings: for inhibition of adhesion of SM cells to activated mouse tEnd.1 cells: IL-1β-activated tEnd.1 monolayers, result in words (FIG. 4, 5A, 5B)
Source text: The mouse endothelioma cell lines, eEnd.2, sEnd.1, tEnd.1, and bEnd.4 were kindly provided by Dr. R. Lindsay Williams at the Ludwig Institute for Cancer Research, […], Austria. These cell lines, originally derived from a subcutaneous (sEnd.1), thymic (tEnd.1), embryonal (eEnd.2), and brain (bEnd.4) hemangliomas produced in transgenic mice expressing polyoma middle T antigen (Williams et al., Cell 52:121-131 (1988)). The cells were maintained in Dulbecco's modified Eagle's medium containing 10% fetal calf serum. Mouse endothelioma cell lines were cultured in 96-well tissue culture plates and activated with 10 units/ml IL-1β (Sigma) and then washed with Dulbecco's modified Eagle's medium containing 5% fetal calf serum before the colonic carcinoma cells were added. As the control, non-activated mouse endothelial cells were prepared identically and used in parallel for the adhesion assays. The adhesion and inhibition of the adhesion by soluble lamp-1 and soluble leukosialin were carried out exactly as described previously (Sawada et al., supra).
Inhibition by sialyl Le^x-positive glycolipid, NeuNAcα2→3Galβ1→4-(Fucα1→3)GlcNAcβ1→3Galβ1→4Glc→Cer was tested after the glycolipid was incorporated into liposomes (Phillips et al., Science 250:1130-1132 (1990)). Paragloboside, NeuNAcα2→3Galβ1→4GlcNAcβ1→3Galβ1→4Glc→Cer was used as a control glycolipid. Sialyl Le^x glycolipid (Kameyama et al., Carbohydr. Res. 209:C1-C4 (1991)) and paragloboside were kindly provided by Drs. Akira Hasegana, Gifu University, Japan, and Michiko Fukuda at this institute, respectively. In order to determine if sialyl Le^x structure on the human colonic cells are recognized by mouse endothelial cells, the adhesion was assayed after the colonic cells were preincubated with anti-sialyl Le^x antibody (CSLEX, IgM) or mouse anti-Le^x monoclonal antibody (anti-PMN-6, IgM). The anti-PMN-6 antibody (Ball and Fanger, Blood 61:456-463 (1983)) was kindly provided by Dr. Ball of the Dartmouth Medical School.
First, the binding of the cell line with the highest adhesion efficiency was tested in the presence of a sialyl Le^x containing glycolipid. SM cells were subjected to adhesion to activated mouse tEnd.1 cells as described in Example IV (and FIG. 3) (open bar), or as in FIG. 3 after pretreatment of the activated monolayers with liposomes containing sialyl Le^x glycolipid (hatched bars), or after pretreatment with liposomes containing the control glycolipid paragloboside (cross-hatched bar). The amount of glycolipid is shown in μg/ml at the x axis. The adhesion to non-activated mouse endothelial cells is shown by the closed bar. Data correspond to the fraction of applied cells still adherent to tEnd.1 cells after washing and are mean and standard deviation from four replicate assays.
The adhesion of SM cells to activated mouse tEnd.1 cells was tested for inhibition by soluble lamp-1 (FIG. 5A) or soluble leukosialin (FIG. 5B). The inhibition by soluble lamp-1 or soluble leukosialin derived from sialyl Le^x positive CHO cells is shown by hatched bars.
Inhibition by control soluble lamp-1 or control soluble leukosialin, which were derived from sialyl Le^x negative CHO cells, is shown by cross-hatched bars. The open bar represents the control without the inhibitors while the closed bar represents the adhesion to unstimulated mouse tEnd.1 monolayers. The experiments shown in FIGS. 5A and 5B were carried out at the same time.

[2] = target: mouse E-selectin on IL-1β-activated mouse tEnd.1 endothelioma cells (mouse) (UniProt Q00690); assay: cell-based or functional assay
Sequence of UniProt Q00690 (Q00690 22-612): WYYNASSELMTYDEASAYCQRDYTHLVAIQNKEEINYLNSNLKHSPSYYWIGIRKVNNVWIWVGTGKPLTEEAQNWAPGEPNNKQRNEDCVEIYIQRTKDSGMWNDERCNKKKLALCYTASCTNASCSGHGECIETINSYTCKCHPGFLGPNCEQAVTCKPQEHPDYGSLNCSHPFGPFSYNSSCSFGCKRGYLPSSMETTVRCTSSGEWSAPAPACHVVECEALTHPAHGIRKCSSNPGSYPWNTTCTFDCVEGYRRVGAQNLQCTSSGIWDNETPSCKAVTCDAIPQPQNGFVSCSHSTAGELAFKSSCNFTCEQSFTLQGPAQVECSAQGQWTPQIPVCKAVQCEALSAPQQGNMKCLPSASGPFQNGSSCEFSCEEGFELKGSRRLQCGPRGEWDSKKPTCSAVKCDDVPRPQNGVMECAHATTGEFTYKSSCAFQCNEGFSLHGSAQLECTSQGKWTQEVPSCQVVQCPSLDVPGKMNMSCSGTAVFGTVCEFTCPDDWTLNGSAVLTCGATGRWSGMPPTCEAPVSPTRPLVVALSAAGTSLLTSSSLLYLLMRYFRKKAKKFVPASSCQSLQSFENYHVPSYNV

[3] = tested on: HUVEC; settings: as described in Sawada et al. (1993); cited from earlier work

**Q.** Which “inhibition of adhesion of SM cells to activated mouse tEnd.1 cells” value (“inhibition of adhesion of SM cells” for short) ([1]; SM cells) does the source give for “NeuNAcα2→3Galβ1→4GlcNAcβ1→3Galβ1→4Glc→Cer [sialyl paragloboside, reference compound]” here?
**A.** did not inhibit the adhesion even at high concentrations

**Q.** Which results are given for “sialyl-Le^x-negative leukosialin: soluble leukosialin IgG chimeric protein lacking the sialyl-Le^x determinant, from control CHO cells without Fuc-TIII vector [reference compound]”?
**A.** inhibition of adhesion of SM cells to activated mouse tEnd.1 cells ([1]; SM cells): inhibited the binding minimally; inhibition of adhesion of SM cells to activated mouse tEnd.1 cells ([1]; SM cells, listed as soluble sialyl Le^x negative leukosialin): inhibited binding only minimally

**Q.** For “soluble chimeric leukosialin-IgG protein, sialyl Le^x positive (from CHO-leu.C2GnT cells transfected with pSRα.s-leu.IgG and pcDNAI-Fuc.TIII) (from UniProt P16150 20-252; P01857 99-330) (Fc fusion)”, which adhesion of SM cells to mouse tEnd.1 cells, percent of control (% of control levels) [2] is on record?
**A.** 30

**Q.** Which results are given for “sialyl-Le^x-positive leukosialin: soluble leukosialin fused to human IgG1 hinge plus constant region, from CHO cells expressing core 2 GlcNAc-transferase and Fuc-TIII; carries sialyl Le^x”?
**A.** inhibition of adhesion of SM cells to activated mouse tEnd.1 cells ([1]; SM cells): inhibited the adhesion of SM cells to mouse tEnd.1 cells in a concentration-dependent manner; inhibition of adhesion of SM cells to activated mouse tEnd.1 cells ([1]; SM cells, listed as sialyl Le^x positive leukosialin): inhibited the adhesion of SM cells to mouse tEnd.1 cells in a concentration dependent manner; binding of SM cells to tEnd.1 cells, relative to control levels ([1]; SM cells, activated tEnd.1, concentration not stated in text (FIG. 5B)): 30 % of control levels

**Q.** Which “inhibition of adhesion of SM cells” value ([1]; SM cells) does the source give for “NeuNAcα2→3Galβ1→4-(Fucα1→3)GlcNAcβ1→3Galβ1→4Glc→Cer [sialyl Le^x glycolipid, reference compound]” here?
**A.** inhibited by liposomes containing sialyl Le^x glycolipid in a dose-dependent manner

**Q.** And the “inhibition of adhesion to mouse cells compared with human endothelial cells” value ([1]; same carcinoma cells, same conditions, mouse vs human endothelial cells)?
**A.** not as effective as the inhibition of the same carcinoma cells to human endothelial cells

B1: soluble lamp-1 containing the sialyl Le^x: soluble form of lysosomal membrane glycoprotein-1 from CHO cells co-transfected with Fuc-TIII vector; carries sialyl Le^x (protein)
chain: AMFMVKNGNGTACIMANFSAAFSVNYDTKSGPKNMTFDLPSDATVVLNRSSCGKENTSDPSLVIAFGRGHTLTLNFTRNATRYSVQLMSFVYNLSDTHLFPNASSKEIKTVESITDIRADIDKKYRCVSGTQVHMNNVTVTLHDATIQAYLSNSSFSRGETRCEQDRPSPTTAPPAPPSPSPSPVPKSPSVDKYNVSGTNGTCLLASMGLQLNLTYERKDNTTVTRLLNINPNKTSASGSCGAHLVTLELHSEGTTVLLFQFGMNASSSRFFLQGIQLNTILPDARDPAFKAANGSLRALQATVGNSYKCNAEEHVRVTKAFSVNIFKVWVQAFKVEGGQFGSVEECLLDENSM
**Q.** Which “inhibition of adhesion of SM cells” value ([1]; SM cells) does the source give for B1 here?
**A.** able to inhibit the adhesion of SM cells to activated mouse tEnd.1 cells in a dose-dependent manner

**Q.** What about the “inhibition of binding of SP-pSRαlamp-1^H cells to HUVEC” value [3] of the same molecule?
**A.** inhibited the binding of the SP-pSRαlamp-1^H to HUVEC
